# Measured values: paper PMC6433232, “Targeting mitochondria in cancer therapy could provide a basis for the selective anti-cancer activity” (PLoS ONE, 2019)
# Where two headings read alike, the source gives them in different places.
# Legend:
# [1] = test system: pancreatic cancer MIA PaCa-2 cells; assay: cells; conditions: for EC50: Homo sapiens, MIA PaCa-2, read-out: EC50, μM MIA PaCa-2; for improvement in anti-cancer activity: versus compound 4
# Experimental: (§1) Fig 1 A, Structure of NSC130362. B, Dose response curve of NSC130362 in MIA PaCa-2 cells. Cells were pre-incubated with NSC130362 for 2 h followed by addition of ATO (5 μM) and incubation for an additional 24 h. At the end of the treatment, the ratio of dead cells was determined by a CellTiterGlo reagent.
# [2] = test system: human primary hepatocytes; assay: cells; conditions: Hepatocyte, read-out: EC50, μM Hepatocytes
# From the text: (§2) We selected hepatocytes as normal cells because hepatocytes are mediate toxicity to multiple drugs and are used as a standard to assess toxicity of drugs in vitro [28]. […] For comparison with the standard of care, doxorubicin was also included in this analysis.
# [3] = test system: human primary hepatocytes; conditions: for EC50: read-out: EC50, μM Hepatocytes ATO, in the presence of ATO (5 μM), SD does not exceed 10%; for times more toxic toward hepatocytes than compound 2: versus compound 2
# From the text: as §2
# in vitro = conditions: human
# Experimental: as §1
Compound,EC50 [1] [µM],EC50 [2] [µM],other results
O=C1C(Cl)=C(NCCCO)C(=O)c2ccccc21 [compound 18],27.5,75.3,increase in toxicity to hepatocytes ([3]; versus compound 17): approximately 3 fold
CC(O)CNC1=C(Cl)C(=O)c2ccccc2C1=O (stereo not shown) [compound 19],24.9,–,increase in toxicity to hepatocytes ([3]; versus compound 17): approximately 3 fold
O=C1C(Cl)=C(Nc2cccc(Cl)c2)C(=O)c2ccccc21 [compound 44],7,5.3,–
CCCCNC1=C(Cl)C(=O)c2ccccc2C1=O [compound 5],> 90,> 90,–
CCC(C)NC1=C(Cl)C(=O)c2ccccc2C1=O (stereo not shown) [compound 11],> 90,> 90,–
CN(C)CCCNC1=C(Cl)C(=O)c2ccccc2C1=O [compound 27],0.9,24.1,improvement in anti-cancer activity [1]: 10.8 fold; increase in toxicity to hepatocytes ([3]; versus compound 4): 9.2 fold
CC(C)CNC1=CC(=O)c2ccccc2C1=O [compound 52],> 90,> 90,–
O=C1C(Cl)=C(Nc2ccc(O)cc2)C(=O)c2ccccc21 [compound 45],2.5,2.6,–
CCCCCCNC1=C(Cl)C(=O)c2ccccc2C1=O [compound 7],26.1,> 90,–
O=C(O)CNC1=C(Cl)C(=O)c2ccccc2C1=O [compound 34],18.1,11.8,–
O=C1C=C(N2CCCCC2)C(=O)c2ccccc21 [compound 58],52,90,–
O=C1C(Cl)=C(NC(CO)(CO)CO)C(=O)c2ccccc21 [compound 20],> 90,47.8,loss in anti-cancer activity ([1]; versus compound 13): approximately 50 fold; loss in toxicity to hepatocytes ([3]; versus compound 13): approximately 2 fold
"COc1cccc2c1C(=O)c1c(O)c3c(c(O)c1C2=O)C[C@@](O)(C(=O)CO)C[C@@H]3O[C@H]1C[C@H](N)[C@H](O)[C@H](C)O1 [Doxorubicin, reference compound]",0.7,10,"selectivity ratio (in vitro): 3.5; selective cytotoxicity index, times less ([1]; human): approximately 25 times"
O=C1C(Cl)=C(NCCCN(CCO)CCO)C(=O)c2ccccc21 [compound 28],9.2,48.5,improvement in anti-cancer activity [1]: 4.6 fold; increase in toxicity to hepatocytes ([3]; versus compound 4): 3.0 fold
O=C1C(Cl)=C(Nc2ccc(F)cc2)C(=O)c2ccccc21 [compound 42],3.2,10,–
CC(C)OCCCNC1=C(Cl)C(=O)c2ccccc2C1=O [compound 25],82.1,60.8,–
[N-]=[N+]=NC1=C(Cl)C(=O)c2ccccc2C1=O [compound 46],5.2,2.9,–
CCCCCNC1=C(Cl)C(=O)c2ccccc2C1=O [compound 6],> 90,> 90,–
CCCCCCCCNC1=C(Cl)C(=O)c2ccccc2C1=O [compound 9],> 90,> 90,–
NC1=C(Br)C(=O)c2ncccc2C1=O [compound 65],1.8,8.6,EC50 [3]: 4.1 µM
CNC1=C(Cl)C(=O)c2ccccc2C1=O [compound 2],38.6,41.1,–

Compound,EC50 [1] [µM],EC50 [2] [µM],other results
CCOCCNC1=C(Cl)C(=O)c2ccccc2C1=O [compound 24],55.4,67.8,–
O=C1C(Cl)=C(Nc2ccc(Cl)cc2)C(=O)c2ccccc21 [compound 43],> 90,> 90,–
"NC1=CC(=O)c2ccccc2C1=O [compound 48, 3-amino-1,4-NQ]",24.4,28.1,increase in toxicity to hepatocytes ([3]; versus compound 1): approximately 3 fold
CC1CCCC(C)N1C1=C(Cl)C(=O)c2ccccc2C1=O (stereo not shown) [compound 47],7,9,–
CCCNC1=C(Cl)C(=O)c2ccccc2C1=O [compound 4],90,90,reduction of anti-cancer activity ([1]; versus compound 3): more than 3 fold
CCC(=O)NC1=C(Cl)C(=O)c2ccccc2C1=O [compound 30],5.7,3.6,–
"CN(C)C1=C(Cl)C(=O)c2ccccc2C1=O [compound 14, 2-chloro-3-(dimethylamino)-1,4-NQ]",7.2,10,times more toxic toward hepatocytes than compound 2 [3]: approximately 2 times
"CC1=CC(=O)c2ccccc2C1=O [compound 61, 3-methyl-1,4-NQ, reference compound]",7.8,11.8,"selectivity ratio (in vitro): 10.4; improved anti-cancer activity ([1]; versus 1,4-NQ (compound 56)): 1.5 fold; times less toxic to hepatocytes [3]: approximately 5 times; EC50 [3]: 15.6 µM"
CC(C)CNC1=C(Cl)C(=O)c2ccccc2C1=O [compound 12],> 90,> 90,–
O=C1C=C(NCCNCCO)C(=O)c2ccccc21 [compound 57],> 90,83.2,–
O=C1C(Cl)=C(NNC(=O)C(F)(F)F)C(=O)c2ccccc21 [compound 35],8,11.5,–
COCCCNC1=C(Cl)C(=O)c2ccccc2C1=O [compound 22],39,90,decrease in anti-cancer activity ([1]; versus compound 21): 4 fold; increase in toxicity to hepatocytes ([3]; versus compound 4): approximately 3 fold
Cc1ccc(NC2=C(Cl)C(=O)c3ccccc3C2=O)cc1 [compound 41],2.5,8.4,–
O=C1C(Cl)=C(Nc2ccccn2)C(=O)c2ccccc21 [compound 37],5.2,6,–
CCCNC1=CC(=O)c2ccccc2C1=O [compound 50],> 90,> 90,–
"O=C1C(Cl)=C(N2CC2)C(=O)c2ccccc21 [compound 15, 2-chloro-3-(aziridin-1-yl)-1,4-NQ]",2.3,2.6,times more toxic toward hepatocytes than compound 2 [3]: ~6.5 times
CCN(CC)C1=CC(=O)c2ccccc2C1=O [compound 59],90,90,–
O=C(CCl)NC1=C(Cl)C(=O)c2ccccc2C1=O [compound 33],7.9,25.4,decrease in anti-cancer activity ([1]; versus compound 29): 2 fold
"O=C1C=CC(=O)c2ccccc21 [compound 56, 1,4-NQ, reference compound]",9.2,1.8,–
CCCCNC1=CC(=O)c2ccccc2C1=O [compound 51],> 90,> 90,–
